Experimental data taken from patent US11753386B2, “Processes for preparing a MDM2 inhibitor” (Amgen, Inc., priority 2018, dated 2023).
Values belong to the compound of their own block, whether it stands above or below them.

Columns and labels:
Assay type in all cases: physicochemical
[1] = Solubility in acetonitrile/water (9/1 volume ratio); settings: organic solvent or mixture, 10° C.
[2] = Equilibrium solubility measurements for DHO in various solvents; settings: thermodynamic from solid, 20° C.
Description: Equilibrium solubility measurements were gathered for DHO in various solvents. It was observed that all values obtained were above 20 mg/mL at 20° C. (including heptane) except for water (<0.1 mg/mL), which was thus selected as an anti-solvent. […] Using this protocol, crystalline DHO was isolated in 88% yield from DLAC in a >98 LC area % (Scheme 9).

[3] = Supernatant concentration at end of crystallization; settings: 20° C.
Description: Cooling to 20° C. in 2 hours prompts another 60% of the material to crystallize. Four volumes of heptane are subsequently added to lower the supernatant concentration to approximately 5 mg/mL in preparation for batch filtration.
A curve showing solubility values at different time points in the crystallization process is represented in FIG. 16. […] One volume of water is subsequently added to lower the supernatant concentration to approximately 5 mg/mL in preparation for a rapid batch filtration. Three water washings (3×10 volumes) were conducted to minimize the presence of residual acetic acid in the isolated material.

[4] = Particle size distribution pre and post dry-milling
[5] = milled (Pallman Universal Mill)

SMILES: CC(C)[C@@H](CS(=O)(=O)C(C)C)N1C(=O)[C@@](C)(CC=O)C[C@H](c2cccc(Cl)c2)C1c1ccc(Cl)cc1 (stereo partly drawn) [ALD]
solubility [1]: 21 mg/mL

SMILES: CC(C)[C@@H](CS(=O)(=O)C(C)C)N1C(=O)[C@@](C)(CC(=O)O)C[C@H](c2cccc(Cl)c2)[C@H]1c1ccc(Cl)cc1 [Compound A, 2-((3R,5R,6S)-5-(3-chlorophenyl)-6-(4-chlorophenyl)-1-((S)-1-(isopropylsulfonyl)-3-methylbutan-2-yl)-3-methyl-2-oxopiperidin-3-yl)acetic acid]
Supernatant concentration ([3]; acetic acid (6.6 volumes) / water (4.4 + 1 volumes)): approximately 5 mg/mL
d10 [4, 5]: 3.2 μm
d50 [4, 5]: 19.1 μm
d90 [4, 5]: 43.7 μm
d10 ([4]; unmilled): 14.6 μm
d50 ([4]; unmilled): 42.5 μm
d90 ([4]; unmilled): 102 μm

Continued, values first:

solubility [1]: 25 mg/mL
SMILES: C=CC[C@@]1(C)C[C@H](c2cccc(Cl)c2)[C@@H](c2ccc(Cl)cc2)N([C@H](CS(=O)(=O)C(C)C)C(C)C)C1=O [SUL, (3S,5R,6S)-3-allyl-5-(3-chlorophenyl)-6-(4-chlorophenyl)-1-((S)-1-(isopropylsulfonyl)-3-methylbutan-2-yl)-3-methylpiperidin-2-one]

solubility thermodynamic ([2]; organic solvent or mixture, various solvents (including heptane) except water): > 20 mg/mL
solubility thermodynamic ([2]; water): < 0.1 mg/mL
SMILES: C=CC[C@@](C)(C[C@H](c1cccc(Cl)c1)[C@@H](O)c1ccc(Cl)cc1)C1=N[C@@H](C(C)C)CO1 [DHO, (1R,2R,4S)-2-(3-chlorophenyl)-1-(4-chlorophenyl)-4-((S)-4-isopropyl-4,5-dihydrooxazol-2-yl)-4-methylhept-6-en-1-ol]

Supernatant concentration ([3]; isopropyl acetate (4 volumes) / heptane (4 volumes)): approximately 5 mg/mL
SMILES: CC(C)[C@@H](CS(=O)(=O)C(C)C)N1C(=O)[C@@](C)(CC(=O)O)CC(c2cccc(Cl)c2)C1c1ccc(Cl)cc1 (stereo partly drawn) [Compound 232-DAB]
